Measurements taken from patent US8703106B2, “Chlorine dioxide treatment for biological tissue” (priority 2009, dated 2014).

How the values were obtained:
Experiment in all cases: Pig infected wound model, delivery methods (Example 4)
Type in all cases: in vivo
[1] = system: Pseudomonas in wounds; details: Day 2, 400 ppm chlorine dioxide over two hours, versus moist controls
Excerpt: (§1) The test animal was a pig (n=1). Pigs are commonly used as models for wound healing in part because pig skin shares many characteristics with human skin. The porcine model is considered to be an excellent tool for the evaluation of candidate agents intended for use in human wounds.
(§2) On Day 0, the pig was anesthetized and sixteen […] full-thickness wounds (eight per side) were created using a custom designed 2-cm trephine. Each wound was 2-cm in diameter. An epinephrine solution (1:10,000 dilution) was applied to the wounds on gauze sponges until hemostasis was complete (approximately 10 minutes). Each wound was then infected with a bacterial inoculum.
(§3) Three different bacteria, Pseudomonas aeruginosa, Fusobacterium sp., and coagulase-negative Staphylococci (CNS), were cultured and used to prepare inoculums for the wounds. On the morning of surgery, the bacterial cultures were washed with sterile saline and resuspended in saline to a final density of approximately 10^7 CFU/mL. This bacterial suspension was used to inoculate each wound.
(§4) Wounds were dressed with sterile Telfa gauze, and the infections allowed to mature to establish a bacterial biofilm condition. Telfa dressings were moistened with saline: the excess saline was removed by squeezing the Telfa dressings. The dressing was then secured in place with Transpore tape (3M, St. Paul, Minn.), As a secondary dressing, a blue absorbent pad was used to cover all of the wounds. The absorbent layer of the blue pad was placed against the skin for the first few days. If wounds looked too dry, the blue pad was changed with the occlusive side against the skin. A layer of a layer of elastic bandage was wrapped over the blue pad to prevent movement of the dressings underneath. All wound dressing were changed on Day 1.
(§5) On Day 2, wounds were treated with a chlorine dioxide composition using different delivery methods. In brief, wounds A2-A4 were treated with continuous irrigation. Treatment for wounds B2-B4 and C2-C4 was multiple, substantially contiguous episodes of contact with a substantially non-cytotoxic chlorine dioxide gel composition. Wounds D2-D4 were treated with intermittent irrigation using a manual irrigation device. A1, B1 and D1 were controls and were not treated with chlorine dioxide. C1 was manually treated with a chlorine dioxide solution.
(§6) Wounds A2-A4: Each wound was individually covered with an irrigation device, each having an inlet, port to supply a chlorine dioxide solution and an outlet port for egress of the chlorine, dioxide solution. […]
(§7) The pump was activated to achieve an initial flow rate of approximately 80-82 ml mm through each of the three irrigation chambers. Chlorine dioxide concentrations were measured at the outlets using a UV spectrophotometer. […]

[2] = system: total bacteria in wounds; details: Day 2, 400 ppm chlorine dioxide over two hours, versus moist controls
Excerpt: as §1, §2, §3, §4, §5, §6, §7

[3] = system: coagulase-negative Staphylococci in wounds
Excerpt: as §1, §2, §3, §4, §5, §6, §7

Structure (SMILES): [O][Cl+][O-] [ClO2, chlorine dioxide]
- reduction of Pseudomonas [1]: ≥ 3 logs
- total bacteria reduction [2]: 1-2 logs
- levels of Staphylococcus aureus ([3]; pig wounds, improved irrigation methods and gel formulation): moderately lowered
- reduction of coagulase-negative Staph ([3]; pig, Day 2, 400 ppm chlorine dioxide over two hours, versus moist controls): 1-2 logs
